Reference: US20230293629A1, “METHODS FOR ATTENUATING RELEASE OF INFLAMMATORY MEDIATORS AND PEPTIDES USEFUL THEREIN” (BIOMARCK PHARMACEUTICALS LTD., priority 2006, published 2023)
Where a SMILES comes first, the peptide text is derived from it. Where no end group is shown, it is not given here. The star is where a group is joined. Myristoyl = CCCCCCCCCCCCCC(=O)*

Tests used:
[1] = test system: HL-60 clone 15 cells; assay: PMA-stimulated EPO release from HL-60 clone 15 cells; format: cell-based, human; details: 50 μM test peptide, two hour incubation with 100 nM PMA; HL-60 clone 15 cells
Description: (§1) Three types of human leukocyte cell lines, specifically the promyelocytic cell line HL-60 clone 15, the monocytic cell line U937, and the lymphocyte natural killer cell line NK-92 were purchased from American Type Culture Collection (ATCC; Rockville, MD). HL-60 clone 15 cells (ATCC CRL-1964) were maintained in medium consisting of RPMI 1640 with L-glutamine supplemented with 10% heat-inactivated fetal bovine serum (Gibco; Invitrogen Co., Carlsbad, CA), 50 IU/ml penicillin, 50 μg/mL streptomycin, and 25 mM HEPES buffer, pH 7.8, at 37° C. in an atmosphere containing 5% CO2. Final differentiation to an eosinophil-like phenotype was initiated by culturing cells at 5×10^5 cells/ml in the above medium containing 0.5 mM butyric acid (Sigma-Aldrich Co.) for 5 days as previously described (Tiffany H L, Li F, Rosenberg H F. Hyperglycosylation of eosinophil ribonucleases in a promyelocytic leukemia cell line and in differentiated peripheral blood progenitor cells. J Leukoc Biol 1995; 58:49-54; Tiffany H L, Alkhatib G, Combadiere C, Berger E A, Murphy P M. CC chemokine receptors 1 and 3 are differentially regulated by IL-5 during maturation of eosinophilic HL-60 cells. J Immunol 1998; 160:1385-1392). U937 cells (ATCC CRL-1593.2) were grown at 37° C. in an atmosphere of 5% CO2 in complete medium consisting of RPMI 1640 with L-glutamine supplemented with 10% FBS, 50 IU/ml penicillin, and 50 μg/mL streptomycin. NK-92 cells (ATCC CRL-2407) were maintained in alpha-MEM medium (Sigma-Aldrich Co.) supplemented with 20% FBS, 100 U/ml of interleukin-2 (IL-2) (Chemicon International, Inc., Temecula, CA), 5×10^−5 M of 2-mercaptoethanol, 50 IU/mL penicillin, and 50 μg/ml streptomycin at 37° C. in an atmosphere containing 5% CO2. Cell morphology was judged by assessment of Wright-Giemsa-stained cells. Viability of cells harvested for experiments was assessed by trypan blue exclusion and populations of cells with viability >95% were used.
(§2) HL-60 clone 15, U937, and NK-92 cells were washed and resuspended at 2.5×10^6 cells/ml in phenol red-free RPMI-1640 (Cellgro; Mediatech, Inc.) for all degranulation assays. Aliquots of cells in 15 ml tubes were preincubated with indicated concentrations of MANS, RNS, or a test peptide for 10 min at 37° C. The cells then were stimulated with PMA for up to 2 hr. A control reference (PMA control reference) was established for each cell type using HL-60 clone 15, U937, and NK-92 cells, respectively, which were washed and resuspended at 2.5×10^6 cells/ml in phenol red-free RPMI-1640 and stimulated with PMA but in the absence of MANS, RNS, or a test peptide for the same time periods. The reaction was terminated by placing tubes on ice and centrifuging cells at 400 g for 5 min at 4° C.
(§3) For measurements of released MPO from neutrophils and released lysozyme from U937 cells, we were able to quantify secretion by using as standards human MPO and egg white […], respectively. For released EPO from HL-60 clone 15 cells and for released granzyme from NK-92 cells, no standards were available to use for quantification. […] To measure intracellular EPO in HL-60 clone 15 cells and intracellular granzyme in NK-92 cells, appropriate aliquots of 0.1% triton X-100-lysed cells were taken for quantification of intracellular granule proteins as described below. All treatments were expressed as percentage of control to minimize variability between cultures.
EPO activity released by HL-60 clone 15 cells was assayed using TMB according to a previously established technique (Lacy P, Mahmudi-Azer S, Bablitz B, Hagen S C, Velazquez J R, Man S F, Moqbel R. Rapid mobilization of intracellularly stored RANTES in response to interferon-gamma in human eosinophils. Blood 1999; 94:23-32). Thus, 100 μL of TMB substrate solution was added to 50 μL=microliters) of sample in a 96-well microplate and incubated at room temperature for 15 min (min=minutes). […]

[2] = test system: U937 cells; assay: PMA-stimulated lysozyme secretion by U937 cells; format: cell-based, human; details: 50 μM test peptide, two hour incubation with 100 nM PMA; U937 cells
Description: as §1, §2, §3
Lysozyme secreted by U937 cells was measured using a spectrophotometric assay as described previously (Balboa M A, Saez Y, Balsinde J. Calcium-independent phospholipase A2 is required for lysozyme secretion in U937 promonocytes. J Immunol 2003; 170:5276-5280) with slight modification. Thus, 100 μL of sample was mixed with 100 μL of a Micrococcus lysodeikticus (Sigma-Aldrich Co.) suspension (0.3 mg/ml in 0.1 M sodium phosphate buffer, pH 7.0) in a 96-well microplate. The decrease in absorbance at 450 nm was measured at room temperature. […]

[3] = Qualitative solubility of peptides in 0.5 N saline, pH 6.5

Compound | % Inhibition EPO [1] | % Inhibition Lysozyme [2] | solubility [3]
Ac-AQFSKTAAKGE-NH2 [Ac-AQFSKTAAKGE-NH2, AQFSKTAAKGE] | 42.8% | 51.8% | > 90 mg/mL
Ac-QFSKTAAKGE-NH2 [Ac-QFSKTAAKGE-NH2, QFSKTAAKGE] | 15.7% | 60.7% | > 150 mg/mL
CCCCCCCCCCCCCC(=O)N[C@@H](C)C(=O)N[C@@H](CCCCN)C(=O)NCC(=O)N[C@@H](CCC(=O)O)C(=O)N[C@@H](C)C(=O)N[C@@H](C)C(=O)N[C@@H](C)C(=O)N[C@@H](CCC(=O)O)C(=O)N[C@@H](CCCNC(=N)N)C(=O)N1CCC[C@H]1C(=O)NCC(=O)N[C@@H](CCC(=O)O)C(=O)N[C@@H](C)C(=O)N[C@@H](C)C(=O)N[C@H](C(=O)N[C@@H](C)C(=O)O)C(C)C [MA-AKGEAAAERPGEAAVA, AKGEAAAERPGEAAVA] (Myristoyl-AKGEAAAERPGEAAVA-OH; C-terminus assumed) | 18.1% | 98% | > 80 mg/mL
Ac-RPGEAAVA [Ac-RPGEAAVA, RPGEAAVA] | 45.8% | 0.0% | 
CCCCCCCCCCCCCC(=O)N[C@H](C(=O)N[C@@H](C)C(=O)N[C@@H](C)C(=O)N[C@@H](CCCCN)C(=O)NCC(=O)N[C@@H](CCC(=O)O)C(=O)N[C@@H](C)C(=O)N[C@@H](C)C(=O)O)[C@@H](C)O [MA-TAAKGEAA, TAAKGEAA] (Myristoyl-TAAKGEAA-OH; C-terminus assumed) | 0% | 80.2% | < 1 mg/mL
CCCCCCCCCCCCCC(=O)NCC(=O)N[C@@H](C)C(=O)N[C@@H](CCC(N)=O)C(=O)N[C@@H](Cc1ccccc1)C(=O)N[C@@H](CO)C(=O)N[C@@H](CCCCN)C(=O)N[C@H](C(=O)N[C@@H](C)C(=O)N[C@@H](C)C(=O)N[C@@H](CCCCN)C(=O)O)[C@@H](C)O [MA-GAQFSKTAAK, GAQFSKTAAK] (Myristoyl-GAQFSKTAAK-OH; C-terminus assumed) | 37.4% | 56.6% | > 10 mg/mL
CCCCCCCCCCCCCC(=O)NCC(=O)N[C@@H](C)C(=O)N[C@@H](CCC(N)=O)C(=O)N[C@@H](Cc1ccccc1)C(=O)N[C@@H](CO)C(=O)N[C@@H](CCCCN)C(=O)N[C@H](C(=O)N[C@@H](C)C(=O)N[C@@H](C)C(=O)N[C@@H](CCCCN)C(=O)NCC(=O)N[C@@H](CCC(=O)O)C(=O)N[C@@H](C)C(=O)N[C@@H](C)C(=O)N[C@@H](C)C(=O)N[C@@H](CCC(=O)O)C(=O)N[C@@H](CCCNC(=N)N)C(=O)N1CCC[C@H]1C(=O)NCC(=O)N[C@@H](CCC(=O)O)C(=O)O)[C@@H](C)O (Myristoyl-GAQFSKTAAKGEAAAERPGE-OH; C-terminus assumed) | 33.6% | 99% | 
Ac-SKTAAKGE-NH2 [Ac-SKTAAKGE-NH2, SKTAAKGE] | 42.2% | 0% | > 200 mg/mL
CC(=O)N[C@@H](C)C(=O)N[C@@H](C)C(=O)NCC(=O)N[C@@H](CCC(=O)O)C(=O)O [Ac-AAGE, AAGE] (Ac-AAGE-OH; C-terminus assumed) | 39.1% | 36.9% | > 200 mg/mL
Ac-GAQFSKTAAKGEAAAE [Ac-GAQFSKTAAKGEAAAE, GAQFSKTAAKGEAAAE] | 56.6% | 8.4% | 
Ac-AAKGEA [Ac-AAKGEA, AAKGEA] | 10.6% | 9.2% | > 150 mg/mL
CCCCCCCCCCCCCC(=O)N[C@@H](C)C(=O)N[C@@H](C)C(=O)N[C@@H](CCCCN)C(=O)NCC(=O)N[C@@H](CCC(=O)O)C(=O)N[C@@H](C)C(=O)O [MA-AAKGEA, AAKGEA] (Myristoyl-AAKGEA-OH; C-terminus assumed) | 31.4% | 28.6% | < 1 mg/mL
Ac-KTAAKGE-NH2 [Ac-KTAAKGE-NH2, KTAAKGE] | 0% | 24.3% | > 200 mg/mL
Ac-GAQFSKTA [Ac-GAQFSKTA, GAQFSKTA] | 0% | 0% | > 200 mg/mL
CCCCCCCCCCCCCC(=O)N[C@@H](C)C(=O)N[C@@H](C)C(=O)N[C@@H](C)C(=O)N[C@@H](CCC(=O)O)C(=O)N[C@@H](CCCNC(=N)N)C(=O)N1CCC[C@H]1C(=O)NCC(=O)N[C@@H](CCC(=O)O)C(=O)N[C@@H](C)C(=O)N[C@@H](C)C(=O)N[C@H](C(=O)N[C@@H](C)C(=O)O)C(C)C [MA-AAAERPGEAAVA, AAAERPGEAAVA] (Myristoyl-AAAERPGEAAVA-OH; C-terminus assumed) | 21.6% | 98% | < 20 mg/mL
CC(=O)N[C@@H](C)C(=O)N[C@@H](CCCCN)C(=O)NCC(=O)N[C@@H](CCC(=O)O)C(=O)O [Ac-AKGE, AKGE] (Ac-AKGE-OH; C-terminus assumed) | 87.6% | 7.2% | > 200 mg/mL
Ac-GAQFSKTAAKGE [Ac-GAQFSKTAAKGE, GAQFSKTAAKGE] | 46.7% | 43.3% | > 100 mg/mL
CCCCCCCCCCCCCC(=O)N[C@@H](C)C(=O)N[C@@H](CCCCN)C(=O)NCC(=O)N[C@@H](CCC(=O)O)C(=O)O [MA-AKGE, AKGE] (Myristoyl-AKGE-OH; C-terminus assumed) | 0% | 28.6% | < 1 mg/mL
Ac-GAQFSKTAA [Ac-GAQFSKTAA, GAQFSKTAA] | 33.3% | 28.9% | > 20 mg/mL
CCCCCCCCCCCCCC(=O)N[C@@H](CCCNC(=N)N)C(=O)N1CCC[C@H]1C(=O)NCC(=O)N[C@@H](CCC(=O)O)C(=O)N[C@@H](C)C(=O)N[C@@H](C)C(=O)N[C@H](C(=O)N[C@@H](C)C(=O)O)C(C)C [MA-RPGEAAVA, RPGEAAVA] (Myristoyl-RPGEAAVA-OH; C-terminus assumed) | 0% | 99% | 
Ac-FSKTAAKGE-NH2 [Ac-FSKTAAKGE-NH2, FSKTAAKGE] | 25.3% | 56.7% | > 100 mg/mL
Ac-GAQFSKTAAKGEAAAERPGE | 48.8% | 0.0% | 
Ac-AAAERPGEAAVA [Ac-AAAERPGEAAVA, AAAERPGEAAVA] | 51.2% | 29.5% | 
Ac-AKGEAAAERPGEAAVA [Ac-AKGEAAAERPGEAAVA, AKGEAAAERPGEAAVA] | 72.3% | 34.3% | 
